Measurements as given in patent publication US8097761B2, “Process for production of carotenoid” (JX Nippon Oil & Energy Corporation, priority 2006, dated 2012).

Assay: Measurement of the concentration of astaxanthin dissolved at room temperature
Assay type: physicochemical

**Q.** For CC1=C(/C=C/C(C)=C/C=C/C(C)=C/C=C/C=C(C)/C=C/C=C(C)/C=C/C2=C(C)C(=O)[C@@H](O)CC2(C)C)C(C)(C)C[C@H](O)C1=O [astaxanthin], which Concentration dissolved (solvent 1,4-dioxane (Ethers), room temperature) is on record?
**A.** The Concentration dissolved was 0.3 % (wt./wt.).

**Q.** What about the Concentration dissolved (solvent Acetone (Ketones), room temperature) of the same molecule?
**A.** The Concentration dissolved was 0.02 % (wt./wt.).

**Q.** What about the Concentration dissolved (solvent Benzene (Hydrocarbons), room temperature) of the same molecule?
**A.** Its Concentration dissolved is 0.05 % (wt./wt.).

**Q.** And the Concentration dissolved (solvent Chloroform (Halogens), room temperature)?
**A.** The Concentration dissolved was 0.7 % (wt./wt.).

**Q.** And the Concentration dissolved (solvent Cyclohexane (Hydrocarbons), room temperature)?
**A.** Its Concentration dissolved is 0.001 % (wt./wt.).

**Q.** And the Concentration dissolved (solvent Cyclohexanone (Ketones), room temperature)?
**A.** The Concentration dissolved was 0.2 % (wt./wt.).

**Q.** And the Concentration dissolved (solvent Dichloromethane (Halogens), room temperature)?
**A.** The Concentration dissolved was 2.3 % (wt./wt.).

**Q.** And the Concentration dissolved (solvent Ethanol (Alcohols), room temperature)?
**A.** The Concentration dissolved was 0.002 % (wt./wt.).

**Q.** And the Concentration dissolved (solvent Hexane (Hydrocarbons), room temperature)?
**A.** The Concentration dissolved was 0.003 % (wt./wt.).

**Q.** What about the Concentration dissolved (solvent Isopropanol (Alcohols), room temperature) of the same molecule?
**A.** Its Concentration dissolved is 0.002 % (wt./wt.).

**Q.** And the Concentration dissolved (solvent Methanol (Alcohols), room temperature)?
**A.** Its Concentration dissolved is 0.003 % (wt./wt.).

**Q.** What about the Concentration dissolved (solvent Methylethylketone (Ketones), room temperature) of the same molecule?
**A.** Its Concentration dissolved is 0.03 % (wt./wt.).

**Q.** What about the Concentration dissolved (solvent Methylisobutylketone (Ketones), room temperature) of the same molecule?
**A.** The Concentration dissolved was 0.02 % (wt./wt.).

**Q.** What about the Concentration dissolved (solvent Tetrahydrofuran (Ethers), room temperature) of the same molecule?
**A.** Its Concentration dissolved is 0.7 % (wt./wt.).

**Q.** And the Concentration dissolved (solvent Toluene (Hydrocarbons), room temperature)?
**A.** The Concentration dissolved was 0.03 % (wt./wt.).

**Q.** And the Concentration dissolved (solvents other than halogen solvents, room temperature (summary of Table 1))?
**A.** The Concentration dissolved was ≤ 1%.
